pIC50: −log10 of the molar value.
How the values were obtained:
[1] = target: Protein farnesyltransferase (Homo sapiens, UniProt P49354+P49356); assay: Inhibition of Farnesyl Transferase; type: protein-complex assay
[2] = target: T1, Squalene synthase (Homo sapiens, UniProt P37268); assay: Inhibition of Squalene Synthase
T1 sequence (P37268 whole entry): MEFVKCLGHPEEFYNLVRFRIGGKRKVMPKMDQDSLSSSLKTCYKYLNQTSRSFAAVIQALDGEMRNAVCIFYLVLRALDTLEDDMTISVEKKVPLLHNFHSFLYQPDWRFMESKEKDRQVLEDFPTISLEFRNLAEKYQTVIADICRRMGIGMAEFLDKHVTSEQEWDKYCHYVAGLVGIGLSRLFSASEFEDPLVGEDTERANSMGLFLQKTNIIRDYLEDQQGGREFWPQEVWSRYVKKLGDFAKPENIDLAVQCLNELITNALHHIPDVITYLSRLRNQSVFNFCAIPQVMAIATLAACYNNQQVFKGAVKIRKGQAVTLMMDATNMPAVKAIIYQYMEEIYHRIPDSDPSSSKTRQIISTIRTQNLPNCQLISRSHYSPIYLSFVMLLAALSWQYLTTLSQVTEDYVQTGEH

SMILES | pIC50 [1] | pIC50 [2]
CC(C)=CCC/C(C)=C/CC/C(C)=C/CC1P(=O)(O)CP(=O)(O)OP1(=O)O (stereo not given) | 4.47 | 4.33
CC(C)=CCC/C(C)=C/CC/C(C)=C/CC(P(=O)(O)O)P(=O)(O)O | 4.87 | 7.74
CC(C)=CCC/C(C)=C/CC/C(C)=C/CC(P(=O)(O)O)P(=O)(O)CP(=O)(O)O (stereo not given) | 5.74 | 5.96

Second part, the compound after the results:

pIC50 [1] | pIC50 [2] | SMILES
5.40 | 4.63 | CC(C)=CCC/C(C)=C/CC/C(C)=C/CC(C/C=C(\C)CC/C=C(\C)CCC=C(C)C)(P(=O)(O)O)P(=O)(O)CP(=O)(O)O (stereo not given)
4.25 | < 4.30 | CC(C)=CCC/C(C)=C/CC/C(C)=C/CC1(C/C=C(\C)CC/C=C(\C)CCC=C(C)C)P(=O)(O)CP(=O)(O)OP1(=O)O (stereo not given)
